Data reported in article PMC12736255, “Reinvestigating Pyrrol-2-One-Based Compounds: From Antimicrobial Agents to Promising Antitumor Candidates” (Pharmaceuticals, 2025).

Tests used:
Test in all cases: NCI-60 single-dose screen
Type in all cases: cell-based
SK-OV-3 = conditions: Homo sapiens; SK-OV-3, 10^–5 M; read-out: GI (%)
Excerpt: (§1) In the next step, all synthesized compounds were electronically submitted and accepted for testing to the National Cancer Institute (NCI) platform, for the single dose (10^−5 M) screening against a panel of 60 human tumor cell lines, representing leukemia, melanoma, and cancers of the lung, colon, central nervous system, ovary, kidney, prostate, and breast. The results are summarized in Table 2, with the best values highlighted in red (Figures S1–S14).

NCI-H23 = conditions: Homo sapiens; NCI-H23, 10^–5 M; read-out: GI (%)
Excerpt: as §1

UACC-62 = conditions: Homo sapiens; UACC-62, 10^–5 M; read-out: GI (%)
Excerpt: as §1

OVCAR-5 = conditions: Homo sapiens; OVCAR-5, 10^–5 M; read-out: GI (%)
Excerpt: as §1

NCI/ADR-RES = conditions: Homo sapiens, 10^–5 M, read-out: GI (%)
Excerpt: as §1

HCT-15 = conditions: Homo sapiens; HCT-15, 10^–5 M; read-out: GI (%)
Excerpt: as §1

K-562 = conditions: Homo sapiens, K562; K-562, 10^–5 M; read-out: GI (%)
Excerpt: as §1

HOP-92 = conditions: Homo sapiens; HOP-92, 10^–5 M; read-out: GI (%)
Excerpt: as §1

SF-539 = conditions: Homo sapiens; SF-539, 10^–5 M; read-out: GI (%)
Excerpt: as §1

OVCAR-4 = conditions: Homo sapiens; OVCAR-4, 10^–5 M; read-out: GI (%)
Excerpt: as §1

HT-29 = conditions: Homo sapiens; HT-29, 10^–5 M; read-out: GI (%)
Excerpt: as §1

ACHN = conditions: Homo sapiens, 10^–5 M, read-out: GI (%)
Excerpt: as §1

RPMI-8226 = conditions: Homo sapiens; RPMI-8226, 10^–5 M; read-out: GI (%)
Excerpt: as §1

LOX IMVI = conditions: Homo sapiens, 10^–5 M, read-out: GI (%)
Excerpt: as §1

NCI-H522 = conditions: Homo sapiens; NCI-H522, 10^–5 M; read-out: GI (%)
Excerpt: as §1

OVCAR-8 = conditions: Homo sapiens; OVCAR-8, 10^–5 M; read-out: GI (%)
Excerpt: as §1

UACC-257 = conditions: Homo sapiens; UACC-257, 10^–5 M; read-out: GI (%)
Excerpt: as §1

SNB-75 = conditions: Homo sapiens; SNB-75, 10^–5 M; read-out: GI (%)
Excerpt: as §1

HS 578T = conditions: Homo sapiens, 10^–5 M, read-out: GI (%)
Excerpt: as §1

786-0 = conditions: Homo sapiens; 786-0, 10^–5 M; read-out: GI (%)
Excerpt: as §1

CAKI-1 = conditions: Homo sapiens; CAKI-1, 10^–5 M; read-out: GI (%)
Excerpt: as §1

KM12 = conditions: Homo sapiens; KM12, 10^–5 M; read-out: GI (%)
Excerpt: as §1

PC-3 = conditions: Homo sapiens, PC-3, PC-3, 10^–5 M; read-out: GI (%)
Excerpt: as §1

OVCAR-3 = conditions: Homo sapiens; OVCAR-3, 10^–5 M; read-out: GI (%)
Excerpt: as §1

NCI-H322M = conditions: Homo sapiens, 10^–5 M, read-out: GI (%)
Excerpt: as §1

NCI-H460 = conditions: Homo sapiens; NCI-H460, 10^–5 M; read-out: GI (%)
Excerpt: as §1

MDA-MB-231/ATCC = conditions: Homo sapiens, 10^–5 M, read-out: GI (%)
Excerpt: as §1

HL-60(TB) = conditions: Homo sapiens, 10^–5 M, read-out: GI (%)
Excerpt: as §1

A549/ATCC = conditions: Homo sapiens, 10^–5 M, read-out: GI (%)
Excerpt: as §1

COLO205 = conditions: Homo sapiens, COLO 205; COLO205, 10^–5 M; read-out: GI (%)
Excerpt: as §1

M14 = conditions: Homo sapiens; M14, 10^–5 M; read-out: GI (%)
Excerpt: as §1

IGROV1 = conditions: Homo sapiens, IGROV-1; IGROV1, 10^–5 M; read-out: GI (%)
Excerpt: as §1

T-47D = conditions: Homo sapiens, T47D, 10^–5 M, read-out: GI (%)
Excerpt: as §1

CCRF-CEM = conditions: Homo sapiens, 10^–5 M, read-out: GI (%)
Excerpt: as §1

SR = conditions: Homo sapiens, 10^–5 M, read-out: GI (%)
Excerpt: as §1

SK-MEL-5 = conditions: Homo sapiens; SK-MEL-5, 10^–5 M; read-out: GI (%)
Excerpt: as §1

HCT-116 = conditions: Homo sapiens; HCT-116, 10^–5 M; read-out: GI (%)
Excerpt: as §1

SNB-19 = conditions: Homo sapiens; SNB-19, 10^–5 M; read-out: GI (%)
Excerpt: as §1

| SMILES | inhibition at 10 µM (SK-OV-3) [%] | inhibition at 10 µM (NCI-H23) [%] | inhibition at 10 µM (UACC-62) [%] | inhibition at 10 µM (OVCAR-5) [%] | inhibition at 10 µM (NCI/ADR-RES) [%] | inhibition at 10 µM (HCT-15) [%] | inhibition at 10 µM (K-562) [%] | inhibition at 10 µM (HOP-92) [%] | inhibition at 10 µM (SF-539) [%] | inhibition at 10 µM (OVCAR-4) [%] | inhibition at 10 µM (HT-29) [%] | inhibition at 10 µM (ACHN) [%] | inhibition at 10 µM (RPMI-8226) [%] | inhibition at 10 µM (LOX IMVI) [%] | inhibition at 10 µM (NCI-H522) [%] | inhibition at 10 µM (OVCAR-8) [%] | inhibition at 10 µM (UACC-257) [%] | inhibition at 10 µM (SNB-75) [%] | inhibition at 10 µM (HS 578T) [%] | inhibition at 10 µM (786-0) [%] | other results |
| --- | --- | --- | --- | --- | --- | --- | --- | --- | --- | --- | --- | --- | --- | --- | --- | --- | --- | --- | --- | --- | --- |
| COc1cc(OC)c(C2C=C(Nc3ccc(I)cc3)C(=O)N2c2ccc(I)cc2)cc1OC (stereo not drawn) [3k] | 0 | 0 | 0 | 0 | 0 | 0 | 0 | 0 | 18 | 3 | 0 | 0 | 14 | 5 | 2 | 0 | 0 | 0 | 0 | 3 | inhibition at 10 µM (CAKI-1): 15%; inhibition at 10 µM (KM12): 2%; inhibition at 10 µM (PC-3): 0%; inhibition at 10 µM (OVCAR-3): 0%; inhibition at 10 µM (NCI-H322M): 4%; inhibition at 10 µM (NCI-H460): 0%; inhibition at 10 µM (MDA-MB-231/ATCC): 0%; inhibition at 10 µM (HL-60(TB)): 2%; inhibition at 10 µM (A549/ATCC): 3%; inhibition at 10 µM (COLO205): 0%; inhibition at 10 µM (M14): 0%; inhibition at 10 µM (IGROV1): 2%; inhibition at 10 µM (T-47D): 8%; inhibition at 10 µM (CCRF-CEM): 0%; inhibition at 10 µM (SR): 7%; inhibition at 10 µM (SK-MEL-5): 12%; inhibition at 10 µM (HCT-116): 4%; inhibition at 10 µM (SNB-19): 0% |
| N#Cc1ccc(C2C=C(Nc3ccc(I)cc3)C(=O)N2c2ccc(I)cc2)cc1 (stereo not drawn) [3l] | 75 | 36 | 17 | 11 | 37 | 21 | 14 | 75 | 35 | 100 | 40 | 100 | 83 | 89 | 32 | 30 | 21 | 100 | 100 | 55 | inhibition at 10 µM (CAKI-1): 62%; inhibition at 10 µM (KM12): 52%; inhibition at 10 µM (PC-3): 45%; inhibition at 10 µM (OVCAR-3): 60%; inhibition at 10 µM (NCI-H322M): 51%; inhibition at 10 µM (NCI-H460): 40%; inhibition at 10 µM (MDA-MB-231/ATCC): 100%; inhibition at 10 µM (HL-60(TB)): 0%; inhibition at 10 µM (A549/ATCC): 31%; inhibition at 10 µM (COLO205): 46%; inhibition at 10 µM (M14): 63%; inhibition at 10 µM (IGROV1): 54%; inhibition at 10 µM (T-47D): 59%; inhibition at 10 µM (CCRF-CEM): 74%; inhibition at 10 µM (SR): 87%; inhibition at 10 µM (SK-MEL-5): 24%; inhibition at 10 µM (HCT-116): 48%; inhibition at 10 µM (SNB-19): 35% |
| O=C1C(Nc2ccc(I)cc2)=CC(c2ccco2)N1c1ccc(I)cc1 (stereo not drawn) [3m] | 67 | 19 | 61 | 0 | 15 | 16 | 14 | 29 | 63 | 0 | 6 | 9 | 93 | 63 | 31 | 11 | 32 | 9 | 39 | 36 | inhibition at 10 µM (CAKI-1): 53%; inhibition at 10 µM (KM12): 48%; inhibition at 10 µM (PC-3): 28%; inhibition at 10 µM (OVCAR-3): 8%; inhibition at 10 µM (NCI-H322M): 19%; inhibition at 10 µM (NCI-H460): 0%; inhibition at 10 µM (MDA-MB-231/ATCC): 11%; inhibition at 10 µM (HL-60(TB)): 30%; inhibition at 10 µM (A549/ATCC): 16%; inhibition at 10 µM (COLO205): 8%; inhibition at 10 µM (M14): 4%; inhibition at 10 µM (IGROV1): 8%; inhibition at 10 µM (T-47D): 49%; inhibition at 10 µM (CCRF-CEM): 59%; inhibition at 10 µM (SR): 76%; inhibition at 10 µM (SK-MEL-5): 17%; inhibition at 10 µM (HCT-116): 20%; inhibition at 10 µM (SNB-19): 8% |
